Data published in ChEMBL document CHEMBL1149216, “Benzene-di-N-octylcarbamates as conformationally constrained phospholipase A(2) inhibitors” (Bioorg Med Chem Lett, 2004).

Legend:
[1] = biological target: Phospholipase A2, major isoenzyme (Sus scrofa) (UniProt P00592); assay: Pre-steady-state inhibition constant against phospholipase A2; conditions: naja mocambique mocambique
[2] = biological target: Phospholipase A2, major isoenzyme (Sus scrofa) (UniProt P00592); assay: k_2 value calculated from 1/Ki=(1/Ks)(k2/k_2); conditions: naja mocambique mocambique

Sequence of Phospholipase A2, major isoenzyme (Sus scrofa) (P00592 23-146 limits assumed): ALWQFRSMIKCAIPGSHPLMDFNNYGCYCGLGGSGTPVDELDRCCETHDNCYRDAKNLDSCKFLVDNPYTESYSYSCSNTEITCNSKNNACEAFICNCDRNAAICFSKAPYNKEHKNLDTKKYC

| K2 [1] [s⁻¹] | Ks [1] [µM] | k 2 [2] [s⁻¹] | Structure (SMILES) |
| --- | --- | --- | --- |
| 0.13 | 16 | 0.033 | CCCCCCCCNC(=O)Oc1cccc(OC(=O)NCCCCCCCC)c1 |
| 0.21 | 21 | 0.15 | CCCCCCCCNC(=O)Oc1ccc(OC(=O)NCCCCCCCC)cc1 |
| 0.17 | 68 | 0.028 | CCCCCCCCNC(=O)Oc1ccccc1OC(=O)NCCCCCCCC |
